According to PMC10584882 (Communications Biology, 2023):
“And” between values parts separate entries of the source, which are not always exact repeats. Equal entries are not always repeated.

Columns and labels:
SARS-CoV-2 M^pro = target: T1, SARS-CoV-2 M^pro (Severe acute respiratory syndrome coronavirus 2, UniProt P0DTD1); format: biochemical; settings: mean with 95% confidence interval; 100 nM M^pro, pH 7.3, 37 °C
T1 construct: Initially reported to target the viral main protease (M^pro); made in house
Protocol: In the enzyme inhibition assays, the initial velocities were calculated from the initial linear portions of their curves, assuming steady-state kinetics. IC50 and Ki values were calculated using GraphPad Prism software. Z-FR-AMC (CatK and CatV), Z-RR-AMC (CatB and CatL), and QS1 or Acetyl-VKLQ-AMC (M^pro) substrates were used to monitor reactions. These measurements were done in four independent duplicates or triplicates, respectively.

human CatK = target: T2, human CatK (Homo sapiens, UniProt P43235); assay: Cathepsin inhibition test, CatK; format: biochemical; settings: for Residual activity (Vi/V0): Fig. S3 panel a, single replicates
T2 construct: made in house
T2 sequence (P43235 115-329): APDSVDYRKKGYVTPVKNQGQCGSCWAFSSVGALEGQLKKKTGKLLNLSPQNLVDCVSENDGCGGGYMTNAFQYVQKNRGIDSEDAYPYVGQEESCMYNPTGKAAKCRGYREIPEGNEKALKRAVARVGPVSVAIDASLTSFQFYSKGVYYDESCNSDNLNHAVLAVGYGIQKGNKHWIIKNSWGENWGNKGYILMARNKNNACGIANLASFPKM

CatL = target: T3, CatL (Homo sapiens, UniProt P07711); assay: Cathepsin inhibition test, CatL; format: biochemical; settings: for Residual activity (Vi/V0): Fig. S3 panel b, single replicates
T3 construct: made in house
T3 sequence (P07711 114-333): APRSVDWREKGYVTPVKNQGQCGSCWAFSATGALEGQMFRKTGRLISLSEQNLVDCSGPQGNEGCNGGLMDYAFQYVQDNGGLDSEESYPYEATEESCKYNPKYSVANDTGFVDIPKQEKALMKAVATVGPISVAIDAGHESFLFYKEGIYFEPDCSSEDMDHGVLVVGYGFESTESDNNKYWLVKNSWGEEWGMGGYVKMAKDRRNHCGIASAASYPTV

human CatV = target: T4, human CatV (Homo sapiens, UniProt O60911); assay: Cathepsin inhibition test, CatV; format: biochemical; settings: Fig. S3 panel c, single replicates
T4 construct: made in house
T4 sequence (O60911 114-334): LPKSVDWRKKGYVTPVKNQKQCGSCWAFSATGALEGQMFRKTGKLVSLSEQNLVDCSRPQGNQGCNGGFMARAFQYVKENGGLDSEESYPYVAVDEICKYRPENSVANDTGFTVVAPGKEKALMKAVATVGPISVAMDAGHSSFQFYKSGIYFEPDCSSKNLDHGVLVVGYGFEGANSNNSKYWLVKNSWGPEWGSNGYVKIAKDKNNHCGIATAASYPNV

SARS-CoV-2-GFP = assay: microbe, parasite or virus in culture; format: cell-based; settings: mean with standard error, read-out: VERO E6 EC50
[1] = inhibitor 0.105 nM, 0.000105 µM
[2] = inhibitor 0.189 nM, 0.000189 µM
[3] = inhibitor 0.612 nM, 0.000612 µM
[4] = inhibitor 1.103 nM, 0.001103 µM
[5] = inhibitor 1.985 nM, 0.001985 µM
[6] = inhibitor 3.572 nM, 0.003572 µM
[7] = inhibitor 11.547 nM, 0.011547 µM
[8] = mean with standard deviation and 95% confidence interval, pH 5.5, 37 °C

## CCCC[C@H](NC(=O)[C@H](CC(C)C)NC(=O)OCc1ccccc1)C(O)S(=O)(=O)[O-].[Na+] (stereo partly drawn) [S-Calpeptin]
SARS-CoV-2 M^pro
  Ki: 4700 nM
Human CatK; inhibitor 0.010 nM, 10 pM
  Residual activity (Vi/V0): 1.028 and 1.067 and 0.9629 and 0.9414 and 0.9225
Human CatK; inhibitor 0.018 nM, 18 pM
  Residual activity (Vi/V0): 1.062 and 1.238 and 0.9724 and 0.8624 and 0.8684
Human CatK; inhibitor 0.032 nM, 32 pM
  Residual activity (Vi/V0): 0.9319 and 1.215 and 0.8238 and 0.889 and 0.8605
Human CatK; inhibitor 0.058 nM, 58 pM
  Residual activity (Vi/V0): 0.7562 and 0.8292 and 0.7671
Human CatK; [1]
  Residual activity (Vi/V0): 1.104 and 0.8757 and 0.7581 and 0.6636 and 0.6847
Human CatK; [2]
  Residual activity (Vi/V0): 0.6363 and 0.7129 and 0.6855 and 0.6137 and 0.6926
Human CatK; inhibitor 0.340 nM, 0.00034 µM
  Residual activity (Vi/V0): 0.4419 and 0.3556 and 0.547 and 0.5599 and 0.6191
Human CatK; [3]
  Residual activity (Vi/V0): 0.562 and 0.5894 and 0.4634 and 0.3938 and 0.3707
Human CatK; [4]
  Residual activity (Vi/V0): 0.4683 and 0.4274 and 0.3853 and 0.3355 and 0.2949
Human CatK; [5]
  Residual activity (Vi/V0): 0.2888 and 0.2948 and 0.2332 and 0.2265 and 0.1772
Human CatK; [6]
  Residual activity (Vi/V0): 0.2021 and 0.2433 and 0.1658 and 0.1472 and 0.1161
Human CatK; inhibitor 6.430 nM, 0.00643 µM
  Residual activity (Vi/V0): 0.1399 and 0.09741 and 0.09721 and 0.03496
Human CatK; [7]
  Residual activity (Vi/V0): 0.01107 and 0.1108 and 0.1149 and 0.0689 and 0.02957
Human CatK; inhibitor 20.833 nM, 0.020833 µM
  Residual activity (Vi/V0): 0.08599 and -0.06715 and 0.04731 and 0.03845 and 0.01885
Human CatK; inhibitor 37.500 nM, 0.0375 µM
  Residual activity (Vi/V0): -0.05695 and -0.1347 and 0.027 and 0.005377 and -0.00068
Human CatK; [8]
  Ki: 0.05 nM
CatL; inhibitor 0.010 nM, 10 pM
  Residual activity (Vi/V0): 1.426 and 1.05 and 1.025 and 1.009 and 1.011 and 1.078 and 1.028 and 1.031 and 1.036 and 1.201
CatL; inhibitor 0.018 nM, 18 pM
  Residual activity (Vi/V0): 1.349 and 1.024 and 1.036 and 0.8728 and 0.9988 and 0.9818 (2×) and 1.042 and 1.062 and 1.149
CatL; inhibitor 0.032 nM, 32 pM
  Residual activity (Vi/V0): 1.453 and 0.9142 and 1.1 and 1.088 and 1.079 and 0.9024 and 0.9567 and 1.006 and 0.9803 and 1.2694
CatL; inhibitor 0.058 nM, 58 pM
  Residual activity (Vi/V0): 1.377 and 1.0256 and 0.8968 and 0.9231 and 0.8862 and 0.9577 and 1.001 and 1.006 and 1.052 and 1.254
CatL; [1]
  Residual activity (Vi/V0): 1.053 and 0.914 and 0.68 and 0.6925 and 0.711 and 0.8569 and 0.909 and 1.0072 and 0.8377 and 1.071
CatL; [2]
  Residual activity (Vi/V0): 0.9886 and 0.7158 and 0.5095 and 0.5746 and 0.5088 and 0.7745 and 0.7818 and 0.8193 and 0.7501 and 1.054
CatL; inhibitor 0.340 nM, 0.00034 µM
  Residual activity (Vi/V0): 0.5984 and 0.5107 and 0.3117 and 0.3431 and 0.2757 and 0.5388 and 0.5659 and 0.5589 and 0.4129 and 0.6122
CatL; [3]
  Residual activity (Vi/V0): 0.6669 and 0.3311 and 0.2683 and 0.3139 and 0.2767 and 0.6359 and 0.6301 and 0.62 and 0.515 and 0.8313
CatL; [4]
  Residual activity (Vi/V0): 0.5114 and 0.2133 and 0.2013 and 0.1965 and 0.1624 and 0.4143 and 0.3924 and 0.3311 and 0.3975 and 0.5758
CatL; [5]
  Residual activity (Vi/V0): 0.3099 and 0.145 and 0.1192 and 0.1108 and 0.1144 and 0.3088 and 0.318 and 0.3267 and 0.2219 and 0.2968
CatL; [8]
  Ki: 0.148 nM
Human CatV; inhibitor 0.010 nM, 10 pM
  Residual activity (Vi/V0): 0.8982 and 0.9438 and 1.016 and 0.9432 and 0.9838 and 0.9734 and 1.009 and 0.9925
Human CatV; inhibitor 0.018 nM, 18 pM
  Residual activity (Vi/V0): 0.7063 and 0.8048 and 0.9697 and 0.9452 and 0.965 and 0.9273 and 1.044 and 0.9905
Human CatV; inhibitor 0.032 nM, 32 pM
  Residual activity (Vi/V0): 0.4743 and 0.664 and 0.9379 and 0.8845 and 0.8627 and 0.9319 and 1.237 and 0.91
Human CatV; inhibitor 0.058 nM, 58 pM
  Residual activity (Vi/V0): 0.01132 and 0.01674 and 0.9458 and 0.6877 and 0.9713 and 0.8348 and 1.1467 and 0.7642
Human CatV; [1]
  Residual activity (Vi/V0): 0.5008 and 0.5002 and 0.8948 and 0.8318 and 0.8983 and 0.7019 and 1.143 and 0.6207
Human CatV; [2]
  Residual activity (Vi/V0): 0.2447 and 0.2374 and 0.7712 and 0.7606 and 0.8108 and 0.5224 and 1.02 and 0.4249
Human CatV; inhibitor 0.340 nM, 0.00034 µM
  Residual activity (Vi/V0): 0.1518 and 0.1386 and 0.6304 and 0.6112 and 0.6332 and 0.3803 and 0.6867 and 0.2117
Human CatV; [3]
  Residual activity (Vi/V0): 0.103 and 0.1097 and 0.4478 and 0.4871 and 0.5442 and 0.179 and 0.3919 and 0.1269
Human CatV; [4]
  Residual activity (Vi/V0): 0.05798 and 0.06049 and 0.2946 and 0.2993 and 0.3554 and 0.1895 and 0.2004 and 0.05784
Human CatV; [5]
  Residual activity (Vi/V0): 0.03342 and 0.03103 and 0.1055 and 0.1184 and 0.07678 and 0.1061 and 0.06687 and 0.038
Human CatV; [6]
  Residual activity (Vi/V0): 0.01297 and 0.01099 and 0.0386 and 0.03676 and 0.03768 and 0.02078 and 0.03085 and 0.02157
Human CatV; inhibitor 6.430 nM, 0.00643 µM
  Residual activity (Vi/V0): 0.008943 and 0.006591 and 0.009607 and 0.008666 and 0.01717 and 0.01084 and 0.01202 and 0.007959
Human CatV; [7]
  Residual activity (Vi/V0): 0.003173 and 0.004275 and 0.001602 and 0.001011
SARS-CoV-2-GFP
  EC50: 120 ± 54 nM
